Measurements from ChEMBL document CHEMBL3991601, “The target landscape of clinical kinase drugs” (Science, 2017).
Calls of active or inactive are those of the source.

Assays:
[1] = biological target: Cyclin-dependent kinase 2 (Homo sapiens, UniProt P24941)
[2] = biological target: T1, Delta(24)-sterol reductase (Homo sapiens, UniProt Q15392)
T1 sequence (Q15392 whole entry): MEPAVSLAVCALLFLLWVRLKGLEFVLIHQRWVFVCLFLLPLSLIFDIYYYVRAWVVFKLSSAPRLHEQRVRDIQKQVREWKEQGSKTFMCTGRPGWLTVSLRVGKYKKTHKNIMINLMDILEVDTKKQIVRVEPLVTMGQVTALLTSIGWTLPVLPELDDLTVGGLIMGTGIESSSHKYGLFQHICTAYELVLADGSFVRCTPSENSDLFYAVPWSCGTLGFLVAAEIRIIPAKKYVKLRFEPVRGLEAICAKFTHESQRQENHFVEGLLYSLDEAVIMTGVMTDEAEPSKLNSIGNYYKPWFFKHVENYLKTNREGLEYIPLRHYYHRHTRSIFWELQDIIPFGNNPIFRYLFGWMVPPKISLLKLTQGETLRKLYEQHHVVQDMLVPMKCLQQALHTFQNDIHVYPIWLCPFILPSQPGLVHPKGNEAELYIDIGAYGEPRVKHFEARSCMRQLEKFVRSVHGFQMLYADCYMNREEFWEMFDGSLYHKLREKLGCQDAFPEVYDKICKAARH

[3] = biological target: T2, Receptor-type tyrosine-protein kinase FLT3 (Homo sapiens, UniProt P36888)
T2 sequence (P36888 whole entry): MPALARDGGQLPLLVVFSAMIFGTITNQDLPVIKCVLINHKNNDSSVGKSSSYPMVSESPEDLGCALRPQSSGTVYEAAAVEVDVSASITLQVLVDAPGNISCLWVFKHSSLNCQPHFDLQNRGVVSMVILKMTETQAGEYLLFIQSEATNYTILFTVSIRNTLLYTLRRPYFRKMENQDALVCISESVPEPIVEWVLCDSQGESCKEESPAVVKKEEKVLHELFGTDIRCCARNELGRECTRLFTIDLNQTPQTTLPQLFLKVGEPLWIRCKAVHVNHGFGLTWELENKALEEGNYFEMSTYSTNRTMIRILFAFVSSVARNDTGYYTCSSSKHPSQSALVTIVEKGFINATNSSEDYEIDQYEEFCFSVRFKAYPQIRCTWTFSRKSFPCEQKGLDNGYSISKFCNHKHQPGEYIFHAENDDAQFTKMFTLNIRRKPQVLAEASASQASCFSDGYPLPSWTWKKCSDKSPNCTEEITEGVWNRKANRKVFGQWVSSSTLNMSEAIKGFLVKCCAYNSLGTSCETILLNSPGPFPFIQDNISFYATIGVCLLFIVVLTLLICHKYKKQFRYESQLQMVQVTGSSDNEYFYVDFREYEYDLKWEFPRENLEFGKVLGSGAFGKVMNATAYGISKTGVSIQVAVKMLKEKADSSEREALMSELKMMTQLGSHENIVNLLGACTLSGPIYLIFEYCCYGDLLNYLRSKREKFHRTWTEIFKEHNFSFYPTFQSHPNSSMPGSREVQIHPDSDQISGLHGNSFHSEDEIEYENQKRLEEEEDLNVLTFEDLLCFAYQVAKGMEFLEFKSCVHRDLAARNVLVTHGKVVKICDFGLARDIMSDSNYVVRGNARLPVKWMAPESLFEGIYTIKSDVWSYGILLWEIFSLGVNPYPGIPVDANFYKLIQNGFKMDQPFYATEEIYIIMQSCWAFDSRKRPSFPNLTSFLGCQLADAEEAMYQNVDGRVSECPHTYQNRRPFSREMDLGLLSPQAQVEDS

[4] = biological target: Insulin-like growth factor 1 receptor (Homo sapiens, UniProt P08069)
[5] = biological target: T3, Interleukin-1 receptor-associated kinase 3 (Homo sapiens, UniProt Q9Y616)
T3 sequence (Q9Y616 whole entry): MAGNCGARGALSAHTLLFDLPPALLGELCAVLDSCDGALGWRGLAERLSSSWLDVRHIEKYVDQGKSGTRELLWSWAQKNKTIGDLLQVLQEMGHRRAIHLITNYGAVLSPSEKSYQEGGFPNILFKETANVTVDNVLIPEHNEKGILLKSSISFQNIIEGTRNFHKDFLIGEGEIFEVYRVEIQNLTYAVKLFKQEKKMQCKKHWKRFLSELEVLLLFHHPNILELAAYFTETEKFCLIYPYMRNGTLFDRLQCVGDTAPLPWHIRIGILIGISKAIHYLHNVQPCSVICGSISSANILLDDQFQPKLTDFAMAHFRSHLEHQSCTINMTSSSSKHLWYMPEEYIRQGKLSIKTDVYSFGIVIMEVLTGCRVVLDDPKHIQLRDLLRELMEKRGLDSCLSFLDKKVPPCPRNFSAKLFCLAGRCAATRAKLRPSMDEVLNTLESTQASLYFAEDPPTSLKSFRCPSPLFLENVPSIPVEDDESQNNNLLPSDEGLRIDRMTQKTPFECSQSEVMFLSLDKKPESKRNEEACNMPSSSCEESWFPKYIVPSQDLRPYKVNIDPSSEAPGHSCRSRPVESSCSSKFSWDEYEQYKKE

[6] = biological target: T4, Bifunctional phosphoribosylaminoimidazole carboxylase/phosphoribosylaminoimidazole succinocarboxamide synthetase (Homo sapiens, UniProt P22234)
T4 sequence (P22234 whole entry): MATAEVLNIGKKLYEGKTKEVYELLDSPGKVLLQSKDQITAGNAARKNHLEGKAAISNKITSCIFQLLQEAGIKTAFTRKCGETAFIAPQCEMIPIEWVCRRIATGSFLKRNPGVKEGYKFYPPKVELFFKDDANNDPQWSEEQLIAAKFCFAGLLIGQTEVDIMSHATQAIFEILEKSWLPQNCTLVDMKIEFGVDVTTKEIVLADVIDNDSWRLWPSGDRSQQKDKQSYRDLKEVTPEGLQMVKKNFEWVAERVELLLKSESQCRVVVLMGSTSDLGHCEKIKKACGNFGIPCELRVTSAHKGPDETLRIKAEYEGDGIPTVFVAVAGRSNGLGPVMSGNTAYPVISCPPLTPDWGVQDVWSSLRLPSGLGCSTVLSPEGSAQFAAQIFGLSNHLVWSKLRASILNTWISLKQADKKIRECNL
Further: in the data inactive means no Kd found up to 30 µM.

Sequence of Insulin-like growth factor 1 receptor (P08069 31-736 limits assumed): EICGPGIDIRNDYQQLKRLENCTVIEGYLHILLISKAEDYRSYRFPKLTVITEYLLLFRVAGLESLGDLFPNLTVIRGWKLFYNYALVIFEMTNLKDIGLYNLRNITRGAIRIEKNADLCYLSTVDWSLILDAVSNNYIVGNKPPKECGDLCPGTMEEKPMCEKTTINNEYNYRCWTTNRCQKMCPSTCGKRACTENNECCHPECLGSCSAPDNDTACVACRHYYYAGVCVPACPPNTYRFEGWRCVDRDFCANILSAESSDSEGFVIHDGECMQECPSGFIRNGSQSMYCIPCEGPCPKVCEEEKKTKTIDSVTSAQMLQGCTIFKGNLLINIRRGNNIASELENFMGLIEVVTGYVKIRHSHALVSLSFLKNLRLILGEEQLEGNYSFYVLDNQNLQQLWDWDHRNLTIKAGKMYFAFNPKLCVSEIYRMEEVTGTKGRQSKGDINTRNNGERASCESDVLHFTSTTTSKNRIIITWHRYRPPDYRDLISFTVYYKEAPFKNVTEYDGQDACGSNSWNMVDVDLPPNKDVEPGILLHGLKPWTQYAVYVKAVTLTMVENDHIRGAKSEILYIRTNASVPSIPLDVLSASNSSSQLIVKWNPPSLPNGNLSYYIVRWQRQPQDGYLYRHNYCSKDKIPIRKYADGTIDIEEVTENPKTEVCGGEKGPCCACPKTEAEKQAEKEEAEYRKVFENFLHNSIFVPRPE
Sequence of Insulin-like growth factor 1 receptor (P08069 741-1367 limits assumed): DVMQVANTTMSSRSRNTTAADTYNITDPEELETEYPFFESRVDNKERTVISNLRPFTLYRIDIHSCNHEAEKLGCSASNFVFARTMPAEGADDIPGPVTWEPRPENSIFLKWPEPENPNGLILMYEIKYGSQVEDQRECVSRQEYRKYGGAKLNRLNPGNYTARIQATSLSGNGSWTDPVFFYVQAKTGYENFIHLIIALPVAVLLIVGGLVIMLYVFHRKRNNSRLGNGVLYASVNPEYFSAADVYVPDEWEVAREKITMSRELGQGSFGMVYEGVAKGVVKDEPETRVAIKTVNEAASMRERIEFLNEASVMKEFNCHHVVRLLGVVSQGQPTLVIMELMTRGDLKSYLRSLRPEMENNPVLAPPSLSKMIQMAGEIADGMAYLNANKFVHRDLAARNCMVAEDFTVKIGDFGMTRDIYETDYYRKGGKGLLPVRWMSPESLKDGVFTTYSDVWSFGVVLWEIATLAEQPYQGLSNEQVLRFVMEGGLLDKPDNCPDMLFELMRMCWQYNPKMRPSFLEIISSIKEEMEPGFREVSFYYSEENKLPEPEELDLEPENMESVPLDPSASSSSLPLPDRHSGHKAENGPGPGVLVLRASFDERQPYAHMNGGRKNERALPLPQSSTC

Structure (SMILES)	Kd [1]	Kd [2]	Kd [3]	Kd [4]	Kd [5]	Kd [6]
C[C@@H](Oc1cc(C(=O)Nc2ccc(C(=O)N3CCN(C)CC3)cc2)nnc1N)c1c(Cl)ccc(F)c1Cl	> 30 µM (inactive)	> 30 µM (inactive)	> 30 µM (inactive)	> 30 µM (inactive)	> 30 µM (inactive)	> 30 µM (inactive)
C[C@H]1CNCCCN1S(=O)(=O)c1cccc2cncc(F)c12	> 30 µM (inactive)	> 30 µM (inactive)	> 30 µM (inactive)	> 30 µM (inactive)	> 30 µM (inactive)	> 30 µM (inactive)
CC(=O)c1cnc2ccc(-c3cc(Cl)c(O)c(Cl)c3)nc2c1N[C@H]1CC[C@H](CN(C)C)CC1	0.091 µM (active)	> 30 µM (inactive)	> 30 µM (inactive)	> 30 µM (inactive)	0.012 µM (active)	> 30 µM (inactive)
CCNC(=O)C#Cc1ccc2c(c1)NC(=O)/C2=C(\Nc1ccc(CN(C)C)cc1)c1ccccc1	> 30 µM (inactive)	> 30 µM (inactive)	0.148 µM (active)	> 30 µM (inactive)	> 30 µM (inactive)	> 30 µM (inactive)
C=CC(=O)N1CCC[C@H](n2c(=O)n(-c3ccc(Oc4ccccc4)cc3)c3c(N)ncnc32)C1	> 30 µM (inactive)	> 30 µM (inactive)	> 30 µM (inactive)	> 30 µM (inactive)	> 30 µM (inactive)	> 30 µM (inactive)
Cc1nc2cc(-c3nn(C(C)C)c4ncnc(N)c34)ccc2o1	> 30 µM (inactive)	> 30 µM (inactive)	7.04 µM (active)	> 30 µM (inactive)	> 30 µM (inactive)	> 30 µM (inactive)
COCc1c(-c2ccc(NC(=O)Nc3cc(C(F)(F)F)ccc3F)c(F)c2)c2c(N)ncnn2c1CN1CCOCC1	> 30 µM (inactive)	> 30 µM (inactive)	0.465 µM (active)	> 30 µM (inactive)	> 30 µM (inactive)	> 30 µM (inactive)
Nc1ncnc2c1c(-c1cccc(OCc3ccccc3)c1)cn2[C@H]1C[C@@H](CN2CCC2)C1 [AEW-541]	> 30 µM (inactive)	> 30 µM (inactive)	> 30 µM (inactive)	–	> 30 µM (inactive)	> 30 µM (inactive)
Cc1nc(NC(=O)N2CCC[C@H]2C(N)=O)sc1-c1ccnc(C(C)(C)C(F)(F)F)c1 [ALPELISIB]	> 30 µM (inactive)	> 30 µM (inactive)	> 30 µM (inactive)	> 30 µM (inactive)	> 30 µM (inactive)	> 30 µM (inactive)
COc1cc([C@@H]2c3cc4c(cc3[C@H](O)[C@H]3COC(=O)[C@@H]23)OCO4)cc(OC)c1OC [AXL-1717]	> 30 µM (inactive)	> 30 µM (inactive)	> 30 µM (inactive)	> 30 µM (inactive)	> 30 µM (inactive)	> 30 µM (inactive)
NC(=O)Nc1cc(-c2cccc(F)c2)sc1C(=O)N[C@H]1CCCNC1 [AZD-7762]	> 30 µM (inactive)	> 30 µM (inactive)	> 30 µM (inactive)	> 30 µM (inactive)	> 30 µM (inactive)	> 30 µM (inactive)
O=C(Nc1cc(C(F)(F)F)cc(C(F)(F)F)c1)c1cc(Cl)ccc1O [IMD-0354]	> 30 µM (inactive)	> 30 µM (inactive)	–	> 30 µM (inactive)	> 30 µM (inactive)	> 30 µM (inactive)
CNC(=O)c1cc(Oc2ccc(NC(=O)Nc3cc(C(C)(C)C)nn3-c3ccc4ncccc4c3)c(F)c2)ccn1 [REBASTINIB]	0.199 µM (active)	> 30 µM (inactive)	–	> 30 µM (inactive)	> 30 µM (inactive)	> 30 µM (inactive)

Now from value to compound:

Kd [1]	Kd [2]	Kd [3]	Kd [4]	Kd [5]	Kd [6]	Structure (SMILES)
> 30 µM (inactive)	> 30 µM (inactive)	> 30 µM (inactive)	> 30 µM (inactive)	> 30 µM (inactive)	> 30 µM (inactive)	Cc1csc(-c2nnc(Nc3ccc(Oc4ncccc4-c4ccnc(N)n4)cc3)c3ccccc23)c1 [AMG-900]
> 30 µM (inactive)	> 30 µM (inactive)	> 30 µM (inactive)	> 30 µM (inactive)	> 30 µM (inactive)	> 30 µM (inactive)	C=CC(=O)Nc1cc2c(Nc3ccc(F)c(Cl)c3)ncnc2cc1C#CC(C)(C)N1CCN(C)CC1 [AV-412 FREE BASE]
> 30 µM (inactive)	> 30 µM (inactive)	> 30 µM (inactive)	> 30 µM (inactive)	> 30 µM (inactive)	> 30 µM (inactive)	Cc1cc(C(=O)NOCCO)c(Nc2ccc(I)cc2F)n(C)c1=O [AZD-8330]
> 30 µM (inactive)	> 30 µM (inactive)	> 30 µM (inactive)	> 30 µM (inactive)	> 30 µM (inactive)	> 30 µM (inactive)	Cn1cnc2c(F)c(Nc3ccc(Br)cc3F)c(C(=O)NOCCO)cc21 [BINIMETINIB]
> 30 µM (inactive)	> 30 µM (inactive)	> 30 µM (inactive)	> 30 µM (inactive)	> 30 µM (inactive)	> 30 µM (inactive)	CCn1c(C(=O)N(C2CC2)C2CC2)cc2c3c(ncn3C)c(Nc3cc(C)n(C)n3)nc21 [BMS-911543]
> 30 µM (inactive)	> 30 µM (inactive)	0.55 µM (active)	> 30 µM (inactive)	> 30 µM (inactive)	> 30 µM (inactive)	COc1cc2ncnc(Oc3cccc(NC(=O)Nc4cc(C(C)(C)C(F)(F)F)on4)c3)c2cc1OC [CEP-32496]
> 30 µM (inactive)	> 30 µM (inactive)	4.26 µM (active)	–	> 30 µM (inactive)	> 30 µM (inactive)	Cc1cc(Nc2ncc(Cl)c(Nc3ccccc3S(=O)(=O)C(C)C)n2)c(OC(C)C)cc1C1CCNCC1 [CERITINIB]
> 30 µM (inactive)	> 30 µM (inactive)	> 30 µM (inactive)	> 30 µM (inactive)	> 30 µM (inactive)	> 30 µM (inactive)	COc1c(OCCCN2CCOCC2)ccc2c1N=C(NC(=O)c1cnc(N)nc1)N1CCN=C21 [COPANLISIB]
> 30 µM (inactive)	> 30 µM (inactive)	0.005 µM (active)	–	0.08 µM (active)	> 30 µM (inactive)	CC(C)c1cc(CNc2nc(Nc3cc(C4CC4)[nH]n3)cc(N3CCN(C)CC3)n2)on1 [XL-228]
